The values below come from patent US10487083B2, “Small molecule inhibitors of the JAK family of kinases” (Janssen Pharmaceutica NV, priority 2016, dated 2019).

The nature of series [1]: In vivo intracolonic (i.c.) dosing, plasma and colon concentrations (Protocol 3). The conditions noted are these: for Plasma Concentration After i.c. Dosing, Mean: 5 mg/kg intracolonic, female C57BL/6 mice; for systemic exposure after i.c. dosing: mice. Details: species or system C57BL/6 mice; key to Plasma Concentration After i.c. Dosing, Mean: ^: Mean was not calculated as the values for all three mice were below the lower limit of quantitation. From the text: Plasma and colon concentration results were obtained by following Protocol 1 using venipuncture of dorsal metatarsal vein bleed for Compounds (B), (C), and Examples 6 and 11. Plasma and colon concentration results were obtained by following Protocol 2 using retro-orbital bleed for Compounds (A), and Examples 1, and 3-5 and Protocol 2 using venipuncture of the dorsal metatarsal vein for Examples 2, 7-10, and 12. Plasma and colon concentration results were obtained by following Protocol 3 for Examples 1, 3 and 4. These protocols are described below under the heading In vivo Studies.
Intracolonic (IC) dose group: Following anesthesia with isoflurane by inhalation, three non-fasted female C57BL/6 mice were administered the compound intracolonically through a small incision in the abdominal wall using a syringe and needle at a dose of 5 mg/kg as a solution in 20% HPβCD at a dose volume of 1 mL/kg. Blood samples were collected at 0.5, 2, and 4 h post dose via retro-orbital bleed. Blood samples were collected into tubes containing anticoagulant (Heparin-Na) and placed on wet ice. The plasma fraction was separated by centrifugation and frozen at −20° C. for up to 4 h and −80° C. after 4 h unless analyzed shortly after sample collection. Colon samples were collected at 4 h post dose. From 2 cm below the cecum, a 4-cm sample of the colon was dissected, cut open on the longitudinal axis, and the solid contents removed by flushing with 2 mL of saline. The colon was further washed by putting it in 5 mL of saline and shaken for 5 seconds. The colon sample was then patted dry, weighed, and homogenized as 1 part tissue (g) to 4 parts HPLC grade water (mL). Concentrations of the compound in plasma and colon homogenate were determined using a qualified liquid chromatography-triple quadrupole mass spectrometry (LC-MS/MS) method. This protocol was used to evaluate IC dosing of the following test compounds: Examples 1, 3, and 4.

Series [2] is described as follows: Physical stability of crystalline embodiments of compound Ex. 1 (HT-XRPD/HR-XRPD after exposure). Format: physicochemical. The conditions noted are these: for physical stability after exposure to AAC: AAC 40° C./70% RH, two days; for physical stability in climate chamber: four days, HR-XRPD. The procedure: Long term slurry experiments were performed by suspending compound embodiment 1s in twenty neat solvents and stirred at room temperature for two weeks and at 50° C. for one week. Upon completion of the equilibration time, the residual solids were separated from the mother liquors. The solids were dried under ambient conditions and dried under vacuum (5 mBar) before being analyzed by HT-XRPD. Subsequently, the solids were exposed to accelerated aging conditions (40° C./70% relative humidity) for two days and again analyzed by HT-XRPD.
Embodiment 1s converted to hydrated embodiment 10 when it was exposed to 100% RH at 25° C. […] This behavior is attributable to an unequally strong binding of all the hydration/solvation molecules. In this case, embodiment 10 would have a less strongly bound second water molecule that would be lost under ambient conditions. More precisely, the physical stability of embodiment 1s was investigated in climate chambers by exposing a 20 mg sample of such embodiment to 40° C. and 70% relative humidity for four days, and another 20 mg sample of the same embodiment was exposed also for four days to 25° C. and 100% relative humidity. After four days, the various solid samples were analyzed by HR-XRPD, the crystal cell parameters were determined and the diffractograms were indexed. From bottom to top, the first diffractogram in FIG. 6 corresponds to embodiment 1s as starting material, and the second corresponds to the same form after a 4-day exposure to 40° C. and 70% relative humidity, noted as “1s 70 RH” in the same figure. […] Indexing for such form was not possible due to the small amount in which it was present. The third diffractogram corresponds to embodiment 1s after a 4-day exposure to 25° C. and 100% relative humidity, noted as “10” in the same figure. […] Upon dehydration, both embodiments is and 10 re-crystallized to the anhydrous form with a melting point of 148° C.

Series [3] is described as follows: MDCK-MDR1 permeability assay. The following applies: MDCK-MDR1, pH 7.4; @ 5 μM, with P-gp inhibitor elacridar (2 μM); read-out: MDCK-MDR1 P^eapp(A-B). In kind it is in vitro ADME. The procedure:
Permeability measurements were conducted according to the Cyprotex protocol using the MDCK-MDR1 cell line obtained from the NIH (Rockville, Md., USA). […] The cells in this assay form a cohesive sheet of a single cell layer filing the surface area of the culture dish, also known as a confluent monolayer, and on day four the test compound was added to the apical side of the membrane and the transport of the compound across the monolayer was monitored over a time period of 60 min.
Test compounds were dissolved in DMSO at a concentration of 10 mM. The dosing solutions were prepared by diluting test compound with assay buffer (Hanks Balanced Salt Solution), pH 7.4, at a final concentration of 5 μM. For assessment of apical to basolateral (“A-B”) permeability, buffer was removed from the apical compartment and replaced with test compound dosing solution with or without the permeability glycoprotein (“PgP”, “P-gP”, “Pgp” or “P-gp”) inhibitor elacridar (2 μM). For assessment of basolateral to apical (“B-A”) permeability, buffer was removed from the companion plate and replaced with test compound dosing solution. […] The permeability coefficient (Papp) for each compound was calculated from the following equation: Papp=(dQ/dt)/(C0×S), where dQ/dt is the rate of permeation of the drug across the cells, C0 is the donor compartment concentration at time zero, and S is the area of the cell monolayer. […]

Series [4] is described as follows: In vivo oral (p.o.) dosing, plasma and colon concentrations (Protocols 1 and 2). The following applies: 25 mg/kg p.o., female C57BL/6 mice. The procedure:
These protocols are described below under the heading In vivo Studies.
Three non-fasted female C57BL/6 mice were orally administered test compound at a dose of 25 mg/kg p.o. as a solution in 20% hydroxypropyl-beta-cyclodextrin (HPβCD) at a dose volume of 5 mL/kg. Blood samples were collected at 0.5, 2, and 4 h post dose via retro-orbital bleed or venipuncture of the dorsal metatarsal vein. Blood samples were collected into tubes containing anticoagulant (Heparin-Na) and placed on wet ice. The plasma fraction was separated by centrifugation and frozen at −20° C. for up to 4 h and −80° C. after 4 h unless analyzed shortly after sample collection. Colon samples were collected at 4 h post dose. […] Concentrations of the compound in plasma and colon homogenate were determined using a qualified liquid chromatography-triple quadrupole mass spectrometry (LC-MS/MS) method.
Three non-fasted female C57BL/6 mice were orally administered test compound at a dose of 25 mg/kg p.o. as a solution in 20% HPβCD at a dose volume of 5 mL/kg. […] The plasma fraction was separated by centrifugation and frozen at −20° C. for up to 4 h and −80° C. after 4 h unless analyzed shortly after sample collection. […] Concentrations of the compound in plasma and colon homogenate were determined using a qualified liquid chromatography-triple quadrupole mass spectrometry (LC-MS/MS) method.

As for `N#CC[C@H]1CC[C@H](n2c(CC(=O)NCC3CC3)nc3cnc4[nH]ccc4c32)CC1` [Ex. 3, 2-(1-((1r,4r)-4-(Cyanomethyl)cyclohexyl)-1,6-dihydroimidazo[4,5-d]pyrrolo[2,3-b]pyridin-2-yl)-N-(cyclopropylmethyl)acetamide], the “Plasma Concentration After i.c. Dosing, Mean” value in series [1] (Time = 2 h) and in series [1] (Time = 4 h) was “^” throughout. Also, the “systemic exposure after i.c. dosing” value in series [1] is “low systemic exposures”.

On to `CC(C)(O)CNC(=O)Cc1nc2cnc3[nH]ccc3c2n1[C@H]1CC[C@H](CC#N)CC1` [Embodiment 4], for which, in series [2], the “physical stability under ambient conditions” value was “did not appear to be physically stable”.

As to `CC(C)(O)CNC(=O)Cc1nc2cnc3[nH]ccc3c2n1[C@H]1CC[C@H](CC#N)CC1` [Embodiment 5], in series [2], the “physical stability after exposure to AAC” value is recorded as “physically unstable”.

For the molecule `CC(C)(O)CNC(=O)Cc1nc2cnc3[nH]ccc3c2n1[C@H]1CC[C@H](CC#N)CC1` [Ex. 1, 2-(1-((1r,4r)-4-(Cyanomethyl)cyclohexyl)-1,6-dihydroimidazo[4,5-d]pyrrolo[2,3-b]pyridin-2-yl)-N-(2-hydroxy-2-methylpropyl)acetamide], the “Plasma Concentration After i.c. Dosing, Mean” value in series [1] (Time = 2 h) and in series [1] (Time = 4 h) was “^” throughout. Also, the “systemic exposure after i.c. dosing” value in series [1] is “low systemic exposures”.

With `CC(C)(O)CNC(=O)Cc1nc2cnc3[nH]ccc3c2n1[C@H]1CC[C@H](CC#N)CC1` [embodiment 10], the “physical stability under ambient conditions” value in series [2] is “physically not stable”.

With `CC(C)(O)CNC(=O)Cc1nc2cnc3[nH]ccc3c2n1[C@H]1CC[C@H](CC#N)CC1` [embodiment 1s], the “physical stability in climate chamber” value was “conversion of embodiment 1s into embodiment 10” in series [2] (25° C. and 100% relative humidity); “initial embodiment 1s had been recovered” in series [2] (40° C. and 70% relative humidity).

Turning to `C[C@@H](O)c1nc2cnc3[nH]ccc3c2n1[C@H]1CC[C@H](CC#N)CC1` [C], the Papp A→B in series [3] amounted to 2.5 ×10⁻⁶ cm/s.

In the case of `CC(C)(O)CNC(=O)Cc1nc2cnc3[nH]ccc3c2n1[C@H]1CC[C@H](CC#N)CC1` [embodiment 2], in series [2], the “physical stability after exposure to AAC” value is listed as “converted to embodiment 3e”.

Regarding `CC(C)(O)CNC(=O)Cc1nc2cnc3[nH]ccc3c2n1[C@H]1CC[C@H](CC#N)CC1` [Embodiment 6], the “physical stability after exposure to AAC” value in series [2] is listed as “stable solid form”.

`N#CC[C@H]1CC[C@H](n2c(CC(=O)Nc3cc[nH]n3)nc3cnc4[nH]ccc4c32)CC1` [Ex. 11, 2-(1-((1r,4r)-4-(Cyanomethyl)cyclohexyl)-1,6-dihydroimidazo[4,5-d]pyrrolo[2,3-b]pyridin-2-yl)-N-(1H-pyrazol-3-yl)acetamide]: the “Plasma Concentration After p.o. Dosing, Mean” value in series [4] (Time = 2 h) and in series [4] (Time = 4 h) was “^” each time.

Take `N#CCCNC(=O)Cc1nc2cnc3[nH]ccc3c2n1[C@H]1CC[C@H](CC#N)CC1` [Ex. 4, N-(2-Cyanoethyl)-2-(1-((1r,4r)-4-(cyanomethyl)cyclohexyl)-1,6-dihydroimidazo[4,5-d]pyrrolo[2,3-b]pyridin-2-yl)acetamide]: the “Plasma Concentration After i.c. Dosing, Mean” value in series [1] (Time = 4 h) is reported as “^”. Further, in series [1], the “systemic exposure after i.c. dosing” value is reported as “low systemic exposures”.

Turning to `CC(C)(O)CNC(=O)Cc1nc2cnc3[nH]ccc3c2n1[C@H]1CC[C@H](CC#N)CC1` [Embodiment 7], the “physical stability after exposure to AAC” value in series [2] was “physically stable”.
